Measurements: patent US10131635B2, “Compositions and methods of using the compositions for plaque softening” (ALUMEND, LLC, priority 2013, dated 2018)
“Also recorded” adds a separate entry of the source.

Key:
[1] = Storage stability of the naphthalimide dimer (solution and powder); type: physicochemical
Source text: A preparative HPLC approach was used to isolate and specifically purify the compound of formula (V) dimer from the compound of formula (V) naphthalimide product produced from the ethanol crystallization. The HPLC method used was based on the purity method outlined above; however, method modifications were made to replace acetonitrile with ethanol and TFA with acetic acid in the mobile phase. The preparative separation utilized a C18 column (X-bridge, 10 μm, 19×250 mm, Waters). The mobile phase consisted of mobile phase A, 0.1% acetic acid (aq), and mobile phase B, 9:1 ethanol:water (0.1% v/v acetic acid). The column was pre-equilibrated at a starting mobile phase of 95% A:5% B for 20 minutes, at the start of the gradient was a 2 minute hold followed by a linear gradient to 90% B at 40 minutes and a 10 minute hold. An injection volume of 8.5 mL (12 mg/mL purified compound of formula (V)) and flow rate of 8.5 mL/minute were used as well as a detector wavelength of 440 nm. The compound of formula (V) fractions were collected and analyzed using the analytical purity method presented above. Fractions meeting a minimum purity criterion were combined and the solvent driven off by rotovapping the solution to dryness. […] Finally the product was quantitatively transferred from the round bottom flask to a freeze drying flask by dissolving the product in a minimal amount of deionized water. […]

artery = experiment: Artery treated with composition, angioplasty and photoactivation: fissure observation; design: species or system human
Procedure: The tissue was an artery approximately 7.4 mm in diameter. An Ultra-thin SDS 8 mm×30 mm catheter was used to dilate the artery to 7.55 mm (approximately a 2% overstretch). A fissure or a possible dissection running down the length of the tissue sample was observed.
A section (6.5 cm in length) of artery was exposed to the composition for 5 minutes. An 80 mm catheter was used to impart a 25% overstretch to the artery. The angioplasty was followed by photoactivation at 1800 mW for 60 seconds using the same 80 mm catheter with a 60 mm light fiber centered in the catheter.
A catheter with an 80 mm treatment zone balloon was used however the photoactivating light fiber was only 60 mm in length. During activation it was noted that the light fiber was shifted distally in the catheter. This meant that the distal end of the artery was receiving photoactivation, however, the proximal end received little or no light. A fissure down the length of the artery was again observed.

[2] = system: hard and soft plaque of common and lower femoral artery; experiment: Tissue immersion: hardness of plaque by manipulation with a forcep; design: species or system human; settings: PBS pH 7.4
Source text: A sample of human tissue from the common and lower femoral artery was received. It was stored in saline and refrigerated until use. Based upon visual and tactile observations, the arteries were approximately 7-8 mm in diameter and contained evidence of both hard and soft plaque. The soft plaque has a yellow fatty appearance that is distinguishable from the vessel wall. The hard plaque presents itself as hard pieces of material that can be pulled (with a forceps) from the soft plaque. Sections of the artery suitable for catheter work were segregated and stored in phosphate buffered saline (PBS), pH=7.4. From the remaining arterial sections, pieces of tissue containing both hard and soft plaque were removed. These pieces were either placed in a solution of PBS (pH=7.4), or dimeric naphthalimide, such as a compound of formula (V) (which is in PBS, pH=7.4). Prior to immersion in either solution the relative hardness of the plaque was evaluated via manual manipulation with a forcep. After a 5 minute soak in solution (typical exposure time), no difference in the samples soaked in PBS was noticed (control). […] The samples were then left in their respective solutions for an additional 90 minutes.

[3] = system: plaque in diseased arteries from limb amputations; experiment: Plaque penetration: diseased arteries soaked with composition, balloon and light activation, visual and histological examination; design: species or system human; settings: 2 mg/mL in PBS pH 7.4, 5 minute soak
Procedure: Diseased arteries were obtained from limb amputations (leg) due to advanced Periperal Arterial Disease (PAD) from patients at a regional hospital. The received arteries were evaluated and chosen such that the diseased section was of reasonable size to accommodate the treatment catheter balloon length being used. The catheter balloon diameter used was also matched to the diameter of the artery and capable of achieving a 1:1.25 (ratio of artery diameter to balloon diameter) overstretch. The artery was laid in a petri dish and an angioplasty balloon was inserted and inflated for 60 seconds to impart the desired overstretch. While the angioplasty balloon was inflated a permanent marker was used to define the treatment zone (where the overstretch was imparted by the balloon) on the outer surface of the artery. The angioplasty balloon was deflated and removed. The inner lumen of the diseased artery was exposed to a plaque softening composition comprising a compound of formula (V) naphthalimide formulation (2 mg/mL in phosphate buffered saline, pH=7.4) for a period of 5 minutes. For the purpose of filling the artery, one end was clamped, the artery was held upright and a syringe was used to dispense the naphthalimide solution until the inner lumen was filled. The open end of the artery was then clamped and the soaking period of 5 minutes commenced. […] Arteries were cut open lengthwise and the treated section was evaluated by visual examination.
Prior to cutting the artery for visual examination samples from the treated and untreated sections were collected and preserved for histological examination. […] After this time, samples were stored in a −80° C. freezer until ready for further analysis. […] The crystalline nature of hard plaque is readily visible without staining. Under this magnification the crystalline structure of the calcific plaque was readily visible, as shown in FIG. 8 the dark area between the two lighter colored areas of the media. […]

With `NCCOCCOCCN1C(=O)c2cccc3c(NCCOCCOCCNc4ccc5c6c(cccc46)C(=O)N(CCOCCOCCN)C5=O)ccc(c23)C1=O` [compound of formula (V)] the “degradation of dimer in powder form” value ([1]; periods exceeding two years of storage in a dessicator at −20° C.) was “no evidence of degradation”, the “stability of dimer solution (excellent stability for periods up to)” value ([1]; solution at pH 7.4) was “up to 18 months” and the repair of fissure (artery; angioplasty, then composition, distal part with adequate photoactivation) was “there appeared to be a seam indicating repair”. For the same molecule, the “fissure in opened artery” value (artery; composition 5 minutes, then angioplasty 25% overstretch, photoactivation 1800 mW 60 seconds) was “no fissure observed”, the “relative hardness of plaque” value ([2]; after a 5 minute soak) was “slight softening” and the “relative hardness of plaque” value ([2]; after an additional 90 minutes in solution) was “significantly softer and more pliable”. For the same molecule, the “observation of tacking of intimal flaps” value ([3]; 447 nm 625 mW/cm 60 seconds) was “tacking of intimal flaps”, the “visual observation of plaque softness in treated region” value ([3]; 447 nm 625 mW/cm 60 seconds) was “apparent softened plaque in the treated region; also recorded: more malleable” and the “calcium crystals under microscope, treated vs untreated sections” value ([3]; light activation) was “less evidence of calcium crystals”.
